Laboratory results taken from ChEMBL document CHEMBL1201862, “PubChem BioAssay data set” (2004).
Counter-ions that a name gives are not always drawn.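 Method: 48-hour compound exposure of cells in 96-well plates, five concentrations, linear interpolation of endpoints. Abbreviation: GI50, concentration required for 50% inhibition of growth.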 Calls of active or inactive are those of the source. Rule as the data show it: active = GI50 up to about 1.1 µM and inactive = higher.

Key:
Experiment in all cases: inhibition of tumour cell growth, NCI panel, 48 h
SK-MEL-28 = tested on: SK-MEL-28
U-251 = tested on: U-251
SNB-19 = tested on: SNB-19
SK-MEL-2 = tested on: SK-MEL-2
NCI-H226 = tested on: NCI-H226
Malme-3M = tested on: Malme-3M
COLO 205 = tested on: COLO 205
A549 = tested on: A549
M14 = tested on: M14
EKVX = tested on: EKVX
XF498 = tested on: XF498
NCI-H460 = tested on: NCI-H460
SN12C = tested on: SN12C
OVCAR-3 = tested on: OVCAR-3
HCT-116 = tested on: HCT-116
SF-268 = tested on: SF-268
IGROV-1 = tested on: IGROV-1
RXF 393 = tested on: RXF 393
HOP-62 = tested on: HOP-62
LOX IMVI = tested on: LOX IMVI
SF-295 = tested on: SF-295
HL-60 = tested on: HL-60
SR = tested on: SR
SNB-75 = tested on: SNB-75
TK-10 = tested on: TK-10
DLD-1 = tested on: DLD-1
UACC-62 = tested on: UACC-62
A498 = tested on: A498
SK-MEL-5 = tested on: SK-MEL-5
OVCAR-8 = tested on: OVCAR-8
786-0 = tested on: 786-0
OVCAR-4 = tested on: OVCAR-4
HCT-15 = tested on: HCT-15
UACC-257 = tested on: UACC-257
SF-539 = tested on: SF-539
HCC 2998 = tested on: HCC 2998
DMS-114 = tested on: DMS-114
UO-31 = tested on: UO-31
KM-20L2 = tested on: KM-20L2
NCI-H23 = tested on: NCI-H23
ACHN = tested on: ACHN
M19-MEL = tested on: M19-MEL
HT-29 = tested on: HT-29
SW-620 = tested on: SW-620
DMS-273 = tested on: DMS-273
LXFL 529 = tested on: LXFL 529
RPMI-8226 = tested on: RPMI-8226
NCI-H522 = tested on: NCI-H522
MOLT-4 = tested on: MOLT-4
HOP-18 = tested on: HOP-18
KM12 = tested on: KM12
MCF7 = tested on: MCF7
NCI/ADR-RES = tested on: NCI/ADR-RES
CAKI-1 = tested on: CAKI-1
HOP-92 = tested on: HOP-92
OVCAR-5 = tested on: OVCAR-5
CCRF-CEM = tested on: CCRF-CEM
SK-OV-3 = tested on: SK-OV-3
SNB-78 = tested on: SNB-78
K562 = tested on: K562

With `COC(=O)CC1NC(=O)C1C1(C)OCCO1` (stereo not drawn) the GI50 (SK-MEL-28) was > 100 µM (inactive), the GI50 (U-251) was > 100 µM (inactive) and the GI50 (SNB-19) was > 100 µM (inactive). For the same compound, the GI50 (SK-MEL-2) was > 100 µM (inactive), the GI50 (NCI-H226) was > 100 µM (inactive) and the GI50 (Malme-3M) was > 100 µM (inactive). For the same compound, the GI50 (COLO 205) was > 100 µM (inactive), the GI50 (A549) was > 100 µM (inactive) and the GI50 (M14) was > 100 µM (inactive). For the same compound, the GI50 (EKVX) was > 100 µM (inactive), the GI50 (XF498) was > 100 µM (inactive) and the GI50 (NCI-H460) was > 100 µM (inactive). For the same compound, the GI50 (SN12C) was > 100 µM (inactive), the GI50 (OVCAR-3) was > 100 µM (inactive) and the GI50 (HCT-116) was > 100 µM (inactive). The GI50 (SF-268) was > 100 µM (inactive), the GI50 (IGROV-1) was > 100 µM (inactive) and the GI50 (RXF 393) was > 100 µM (inactive). The GI50 (HOP-62) was > 100 µM (inactive), the GI50 (LOX IMVI) was > 100 µM (inactive) and the GI50 (SF-295) was > 100 µM (inactive). For the same compound, the GI50 (HL-60) was > 100 µM (inactive), the GI50 (SR) was > 100 µM (inactive) and the GI50 (SNB-75) was 28 µM (inactive). For the same compound, the GI50 (TK-10) was > 100 µM (inactive), the GI50 (DLD-1) was > 100 µM (inactive) and the GI50 (UACC-62) was > 100 µM (inactive). The GI50 (A498) was > 100 µM (inactive), the GI50 (SK-MEL-5) was > 100 µM (inactive) and the GI50 (OVCAR-8) was > 100 µM (inactive). For the same compound, the GI50 (786-0) was > 100 µM (inactive), the GI50 (OVCAR-4) was > 100 µM (inactive) and the GI50 (HCT-15) was over 100 µM. The GI50 (UACC-257) was > 100 µM (inactive), the GI50 (SF-539) was > 100 µM (inactive) and the GI50 (HCC 2998) was > 100 µM (inactive). The GI50 (DMS-114) was > 100 µM (inactive), the GI50 (UO-31) was > 100 µM (inactive) and the GI50 (KM-20L2) was > 100 µM (inactive). For the same compound, the GI50 (NCI-H23) was > 100 µM (inactive), the GI50 (ACHN) was > 100 µM (inactive) and the GI50 (M19-MEL) was > 100 µM (inactive). The GI50 (HT-29) was > 100 µM (inactive), the GI50 (SW-620) was > 100 µM (inactive) and the GI50 (DMS-273) was > 100 µM (inactive). The GI50 (LXFL 529) was > 100 µM (inactive) and the GI50 (RPMI-8226) was > 100 µM (inactive).

With `CCCCc1oc2ccccc2c1C(=O)c1cc(I)c(OCCN(CC)CC)c(I)c1` [AMIODARONE HYDROCHLORIDE] the GI50 (SK-MEL-28) was 4.8 µM (inactive), the GI50 (U-251) was 4.16 µM (inactive) and the GI50 (SNB-19) was 6.21 µM (inactive). The GI50 (SK-MEL-2) was 4.63 µM (inactive), the GI50 (NCI-H522) was 5.06 µM (inactive) and the GI50 (NCI-H226) was 4.5 µM (inactive). For the same compound, the GI50 (Malme-3M) was 4.89 µM (inactive), the GI50 (COLO 205) was 4.21 µM (inactive) and the GI50 (A549) was 8.51 µM (inactive). For the same compound, the GI50 (EKVX) was 9.79 µM (inactive), the GI50 (XF498) was 4.69 µM (inactive) and the GI50 (NCI-H460) was 4.09 µM (inactive). For the same compound, the GI50 (MOLT-4) was 3.4 µM (inactive), the GI50 (HOP-18) was 0.791 µM (active) and the GI50 (SN12C) was 7.73 µM (inactive). The GI50 (OVCAR-3) was 6.22 µM (inactive), the GI50 (HCT-116) was 4.17 µM (inactive) and the GI50 (SF-268) was 11 µM (inactive). The GI50 (IGROV-1) was 11.1 µM (inactive), the GI50 (RXF 393) was 3.82 µM (inactive) and the GI50 (HOP-62) was 10.6 µM (inactive). For the same compound, the GI50 (LOX IMVI) was 3.82 µM (inactive), the GI50 (SF-295) was 4.63 µM (inactive) and the GI50 (KM12) was 5.51 µM (inactive). For the same compound, the GI50 (HL-60) was 2.79 µM (inactive), the GI50 (SNB-75) was 7.59 µM (inactive) and the GI50 (DLD-1) was 6.73 µM (inactive). For the same compound, the GI50 (UACC-62) was 5.28 µM (inactive), the GI50 (A498) was 5.02 µM (inactive) and the GI50 (SK-MEL-5) was 4.7 µM (inactive). For the same compound, the GI50 (MCF7) was 5.19 µM (inactive), the GI50 (OVCAR-4) was 6.5 µM (inactive) and the GI50 (NCI/ADR-RES) was 5.86 µM (inactive). The GI50 (CAKI-1) was 6.14 µM (inactive), the GI50 (HCT-15) was 4.12 µM and the GI50 (HOP-92) was 3.86 µM (inactive). The GI50 (UACC-257) was 5.21 µM (inactive), the GI50 (SF-539) was 5.07 µM (inactive) and the GI50 (OVCAR-5) was 5.21 µM (inactive). The GI50 (HCC 2998) was 3.85 µM (inactive), the GI50 (CCRF-CEM) was 4.54 µM (inactive) and the GI50 (KM-20L2) was 3.64 µM (inactive). For the same compound, the GI50 (NCI-H23) was 6.15 µM (inactive), the GI50 (SK-OV-3) was 5.98 µM (inactive) and the GI50 (M19-MEL) was 4.67 µM (inactive). For the same compound, the GI50 (SNB-78) was 7.6 µM (inactive), the GI50 (HT-29) was 4.42 µM (inactive) and the GI50 (SW-620) was 4.59 µM (inactive). For the same compound, the GI50 (DMS-273) was 4.16 µM (inactive), the GI50 (RPMI-8226) was 3.71 µM (inactive) and the GI50 (K562) was 3.88 µM (inactive).
